Assay type: in vivo, human
Details: for Concentration of Endocrine-Disrupting Substance in Vital Sample, Cord Serum / Concentration of Endocrine-Disrupting Substance in Vital Sample, Maternal Serum / Concentration of Endocrine-Disrupting Substance in Vital Sample, Mother's Milk / Concentration of Chlordane in Vital Sample, Cord Serum / Concentration of Chlordane in Vital Sample, Maternal Serum / Concentration of Chlordane in Vital Sample, Mother's Milk: in fat; for Concentration of Endocrine-Disrupting Substance in Vital Sample, Cord Serum / Concentration of Endocrine-Disrupting Substance in Vital Sample, Maternal Serum / Concentration of Endocrine-Disrupting Substance in Vital Sample, Mother's Milk: samples from 10 mothers; for PCB isomer value in the cord serum as compared with the maternal serum: cord serum vs maternal serum, confidence coefficient: 95% or more; for Concentration of Chlordane in Vital Sample, Cord Serum / Concentration of Chlordane in Vital Sample, Maternal Serum / Concentration of Chlordane in Vital Sample, Mother's Milk: individual chlordanes
Description: Maternal serum, cord serum and mother's milk samples collected from 10 mothers were used (30 samples in total). These samples were used for the analysis test after obtaining the consent from the subjects.
The GPC column used was Shodex (registered trademark) EV-200AC Column (polystyrene-base hard gel column having an inner diameter of 2 mm and a length of 150 mm) manufactured by Showa Denko K. K.
A programmed temperature vaporizer (PTV) was equipped and in the GC part, an inactivated silica tube (2 m (length)×0.53 mm (inner diameter)) and capillary columns DB-5 (0.5 m (length)×0.25 mm (inner diameter), film thickness: 0.25 μm; and 60 m (length)×0.25 mm (inner diameter), film thickness: 0.1 μm), both manufactured by J & W Scientific, were used. After the injection of solution, the temperature was kept at 83° C. (for 5 minutes) and then elevated to 172° C. at 1° C./min and further to 270° C. at 50° C./min. The measurement was performed at 280° C.
In the main test below, the internal standard substances used were 3 kinds of PCBs marked by ^13C (3,3′,4,4′-tetrachlorobiphenyl, 3,3′,4,4′,5-pentachlorobiphenyl, 3,3′,4,4′,5,5′-hexachlorobiphenyl), hexachlorobenzene (HCB) and p,p′-dichlorodiphenyl dichloroethylene (DDE).
The cord serum (8 ml), the maternal serum (4 ml) and the mother's milk (2 ml) each was subjected to fat extraction according to the method by Patterson et al. More specifically, the sample was charged into a separating funnel, the internal standard substance was added, and then saturated ammonium sulfate, ethanol and hexane were added at a ratio of about 1:1:3. After shaking to cause separation into two layers, the aqueous layer was transferred to a different separating funnel and hexane was added thereto. After shaking to cause separation into two layers, the hexane layer was combined with the organic layer obtained at the first separation, washed with water, dried over anhydrous sodium sulfate, filtered, concentrated and dried. Thereafter, the total weight of fat was measured. The average fat amount was 0.197% in the cord serum, 0.895% in the maternal serum and 3.04% in the mother's milk.
Acetone/cyclohexane (3:7) (v/v) was passed through the GPC column at a flow rate of 0.1 ml/min and 20 μl of a solution obtained by dissolving the fat extracted above in 50 to 100 μl of a solvent having the same composition was injected into the GPC.
Based on the results in the preliminary measurement, the elution composition of 0 to 3.2 minutes after the injection of sample was discarded and the fraction of 3.2 to 5.2 minutes was collected in a sample loop (storage amount: 200 μl) and introduced into GC/MS at 5.2 to 7.5 minutes.
The results are shown in Table 1 together with analysis results of other endocrine-disrupting substances.

SMILES	Concentration of Endocrine-Disrupting Substance in Vital Sample, Cord Serum [ppb]	Concentration of Endocrine-Disrupting Substance in Vital Sample, Maternal Serum [ppb]	Concentration of Endocrine-Disrupting Substance in Vital Sample, Mother's Milk [ppb]	Concentration of Chlordane in Vital Sample, Maternal Serum [ppb]	Concentration of Chlordane in Vital Sample, Mother's Milk [ppb]	further results
ClC1=C(Cl)C2(Cl)C3C(Cl)C=CC3C1(Cl)C2(Cl)Cl (stereo not drawn) [Heptachlor]	1.20	1.17	0.30			
Clc1ccc(-c2cc(Cl)c(Cl)cc2Cl)cc1Cl [#118]						PCB isomer value in the cord serum as compared with the maternal serum: significantly low
ClC1=C(Cl)[C@]2(Cl)C3C(Cl)C(Cl)CC3[C@@]1(Cl)C2(Cl)Cl (stereo partly drawn) [γ-Chlordane]				1.43	1.66	Concentration of Chlordane in Vital Sample, Cord Serum: 1.64 ppb
ClC(Cl)=C(c1ccc(Cl)cc1)c1ccc(Cl)cc1 [DDE, p,p′-dichlorodiphenyl dichloroethylene]	278.63	314.48	343.62			
Clc1cc(Cl)c(-c2cc(Cl)c(Cl)cc2Cl)cc1Cl [#153]						PCB isomer value in the cord serum as compared with the maternal serum: significantly low
ClC1=C(Cl)[C@]2(Cl)[C@H]3[C@H]([C@H](Cl)C(Cl)[C@@H]3Cl)[C@@]1(Cl)C2(Cl)Cl (stereo partly drawn) [cis-Nonachlor]				1.54	2.25	Concentration of Chlordane in Vital Sample, Cord Serum: 0.91 ppb
Clc1cc(Cl)c(-c2cc(Cl)c(Cl)c(Cl)c2)c(Cl)c1 [#168]						PCB isomer value in the cord serum as compared with the maternal serum: significantly low
Clc1ccc(-c2cc(Cl)c(Cl)c(Cl)c2Cl)c(Cl)c1Cl [#170]						PCB isomer value in the cord serum as compared with the maternal serum: significantly low
Clc1c(Cl)c(Cl)c(Cl)c(Cl)c1Cl [HCB, hexachlorobenzene]	14.14	15.71	14.08			
ClC1=C(Cl)C2(Cl)C3C4OC4C(Cl)C3C1(Cl)C2(Cl)Cl (stereo not drawn) [HCE, heptachloroepoxide]	1.55	2.61	3.06			
ClC1=C(Cl)[C@]2(Cl)[C@H]3[C@H]([C@H](Cl)[C@]4(Cl)O[C@H]34)[C@@]1(Cl)C2(Cl)Cl [Oxychlordane]				6.30	6.49	Concentration of Chlordane in Vital Sample, Cord Serum: 6.66 ppb
ClC1C(Cl)C(Cl)C(Cl)C(Cl)C1Cl (stereo not drawn) [HCH, hexachlorocyclohexane]	189.54	271.49	315.58			
ClC1=C(Cl)[C@]2(Cl)[C@H]3C[C@H](Cl)[C@H](Cl)[C@H]3[C@@]1(Cl)C2(Cl)Cl (relative stereo) [cis-Chlordane]				0.86	0.93	
ClC1=C(Cl)[C@]2(Cl)[C@H]3[C@H]([C@H](Cl)C(Cl)[C@@H]3Cl)[C@@]1(Cl)C2(Cl)Cl (stereo partly drawn) [trans-Nonachlor]				17.08	19.58	Concentration of Chlordane in Vital Sample, Cord Serum: 16.35 ppb
